Measurements taken from US20120329865A1, “MOLECULES RELATED hERG ION [sequence] AND THE USE THEREOF” (priority 2009, published 2012).
Where two headings read alike, the source gives them in different places.

Tests used:
hERG ion channels [1] = biological target: T1, hERG ion channels (Homo sapiens, UniProt Q12809)
Description: (§2) Label-free RWG biosensor cellular assays were developed to directly assaying the activation and its subsequent signaling of hERG channels without applying voltages to the cells. […] Generally, the disclosed methods to characterize modulators acting directly through hERG ion channel, or indirectly via hERG-associated signaling complexes are related to label-free biosensor cellular assays. Disclosed is the use of three types of cells: a cancerous cell line endogenously expressing hERG ion channels, a native cell line without endogenous hERG channels and its engineered cell line overexpressing hERG channels, for characterizing hERG modulators. Also disclosed is the use of mallotoxin or other hERG activator as a readout to further confirm the modes of action of hERG modulators.
(§3) In a specific approach, any compound can be profiled in three different types of cells, HT29, HEK-hERG, and HEK-293 cells, in both agonism and antagonism modes. The human colon cancerous cell line HT-29 is known to endogenously express hERG channels. HEK293 is a native cell line without endogenously expressed hERG channels, while HEK-hERG is an engineered HEK293 cell having stably expressed hERG channels.

hERG ion channels [2] = biological target: T1, hERG ion channels; assay: DMR antagonism mode: modulation of the mallotoxin DMR signal in HEK-hERG cells; details: for effect on the mallotoxin DMR signal in HEK-hERG cells (in words): molecule 10 micromolar, mallotoxin 16 micromolar, antagonism assay
hERG ion channels [3] = biological target: T1, hERG ion channels; assay: Label-free RWG biosensor (Epic) DMR assay, agonism mode, HEK-hERG cells stably expressing hERG; details: 10 micromolar
Description: (§4) Using the RWG biosensor Corning® Epic® system, all compounds were systematically characterized for their ability to modulate hERG ion channels in live cells. The Epic® system consists of a temperature-control unit, an optical detection unit, with an on-board liquid handling unit with robotics, or an external liquid accessory system with robotics. The detection unit is centered on integrated fiber optics, and enables kinetic measures of cellular responses with a time interval of ˜7 or 15 sec. The compound solutions were introduced by using either the on-board liquid handling unit, or the external liquid accessory system; both of which use conventional pippetting system.
(§5) Epic® wavelength interrogation system (Corning Inc., Corning, N.Y.) was used for whole cell sensing. This system consists of a temperature-control unit, an optical detection unit, and an on-board liquid handling unit with robotics. The detection unit is centered on integrated fiber optics, and enables kinetic measures of cellular responses with a time interval of ˜15 sec.
(§6) Cells were plated in 384-well Epic® cell culture treated plate (Corning Cat#5040) 16-20 hours before assay (15000 cells/well for HEK293 and HEK-hERG cells, 30000 cells/well for HT29 cells). For both HEK-hERG and its parental HEK293 cells, each well was coated with 10 μl 5 μg/ml fibronectin. One hour before assay, cells were washed twice on a BioTek ELx405 Select washer with Hank's Balanced Salt Solution (HBSS) containing 20 mM Hepes. Cells were incubated in 40 μl/well HBSS at 28° C. inside the Epic system for one hour. For each assay, a 2-min baseline was initiated, followed by addition of 10 μl compound solutions (5×) and the cell responses were recorded continuously for one hour.
(§7) All studies were carried out at a controlled temperature (28° C.). At least two independent sets of experiments, each with at least three replicates, were performed. […] All dose-dependent responses were analyzed using non-linear regression method with the GraphPad Prism 5.
as §3

hERG ion channels [4] = biological target: T1, hERG ion channels; assay: DMR antagonism mode: modulation of the mallotoxin DMR signal in HT29 cells; details: for effect on the mallotoxin DMR signal in HT29 cells (in words): molecule 10 micromolar, mallotoxin 16 micromolar, antagonism assay
hERG ion channels [5] = biological target: T1, hERG ion channels; assay: Label-free RWG biosensor (Epic) DMR assay, agonism mode, HT29 cells endogenously expressing hERG; details: 10 micromolar
Description: as §4, §5, §6, §7, §3

hERG ion channels [6] = biological target: T1, hERG ion channels; assay: Label-free biosensor hERG modulator classification from profiles in HT29, HEK-hERG and HEK293 cells plus mallotoxin modulation; details: label-free biosensor cellular assays
Description: as §2, §3

hERG ion channels [7] = biological target: T1, hERG ion channels; assay: Rb+ flux assay using HEK-hERG cells; details: 5 mM KCl, modulators at 10 or 50 micromolar (FIG. 3)
Procedure: Briefly, 50,000 cells per well were plated in 96-well tissue culture treated plates 20 hours before assay. In the next day, cells were incubated with complete cell culture medium containing 5 mM RbCl for 3 hours at 37° C. with 5% CO2. Then compounds (10×) diluted in HBSS were added into the cell culture medium and cells were incubated at 37° C. with 5% CO2 for another hour. Cells were washed twice with Rb^+ free cell culture medium and incubated with 180 μl/well of cell culture medium containing different concentration of KCl for exactly 10 minutes. The supernatant from each well was transferred to a new 96 well plate immediately. Cells were lysed with 180 μl/well 0.5% Triton100 in HBSS. The Rb^+ concentration of each sample was determined by ICR8000 (Aurora Biomed Inc.).

HT29 = assay: Cell proliferation assay (CellTiter-Glo) in HT29; format: cell-based, human; details: for cytotoxicity on cancer cell line HT29: 25 micromolar, in vitro culture; for cell apoptosis or alteration in cell proliferation rate, HT29: 48 h exposure
Procedure: (§1) Proliferation was measured using the CellTiter-Glo Luminescent Cell Viability Assay (Technical Bulletin #288, Promega, Madison, Wis.). When added to cells, the assay reagent produces luminescence in the presence of ATP from viable cells. Cells were plated in 96-well Corning Costar TCT (tissue culture treated) plates at a density of 10,000 cells/well and incubated for 24 h. Test samples were solubilized in dimethyl sulfoxide (DMSO) by sonication, filter sterilized and diluted with media to the desired treatment concentration. Cells were treated with 100 μl control media, or test samples, and incubated for 48 h drug exposure duration. At the end of 48 h, plates were equilibrated at room temperature for 30 min, 100 μl of the assay reagent was added to each well and cell lysis was induced on an orbital shaker for 2 min. Plates were incubated at room temperature for 10 min to stabilize the luminescence signal and results were read on an Perkin Elmer Vector 3 Microplate Reader. All plates had control wells containing medium without cells to obtain a value for background luminescence. Data are expressed as for three replications.

MCF7 = assay: Cell proliferation assay (CellTiter-Glo) in MCF7; format: cell-based; details: 48 h exposure; data not shown
Procedure: as §1

[8] = score assigned from % modulation of mallotoxin DMR (10% = 1)

T1 sequence (Q12809 whole entry): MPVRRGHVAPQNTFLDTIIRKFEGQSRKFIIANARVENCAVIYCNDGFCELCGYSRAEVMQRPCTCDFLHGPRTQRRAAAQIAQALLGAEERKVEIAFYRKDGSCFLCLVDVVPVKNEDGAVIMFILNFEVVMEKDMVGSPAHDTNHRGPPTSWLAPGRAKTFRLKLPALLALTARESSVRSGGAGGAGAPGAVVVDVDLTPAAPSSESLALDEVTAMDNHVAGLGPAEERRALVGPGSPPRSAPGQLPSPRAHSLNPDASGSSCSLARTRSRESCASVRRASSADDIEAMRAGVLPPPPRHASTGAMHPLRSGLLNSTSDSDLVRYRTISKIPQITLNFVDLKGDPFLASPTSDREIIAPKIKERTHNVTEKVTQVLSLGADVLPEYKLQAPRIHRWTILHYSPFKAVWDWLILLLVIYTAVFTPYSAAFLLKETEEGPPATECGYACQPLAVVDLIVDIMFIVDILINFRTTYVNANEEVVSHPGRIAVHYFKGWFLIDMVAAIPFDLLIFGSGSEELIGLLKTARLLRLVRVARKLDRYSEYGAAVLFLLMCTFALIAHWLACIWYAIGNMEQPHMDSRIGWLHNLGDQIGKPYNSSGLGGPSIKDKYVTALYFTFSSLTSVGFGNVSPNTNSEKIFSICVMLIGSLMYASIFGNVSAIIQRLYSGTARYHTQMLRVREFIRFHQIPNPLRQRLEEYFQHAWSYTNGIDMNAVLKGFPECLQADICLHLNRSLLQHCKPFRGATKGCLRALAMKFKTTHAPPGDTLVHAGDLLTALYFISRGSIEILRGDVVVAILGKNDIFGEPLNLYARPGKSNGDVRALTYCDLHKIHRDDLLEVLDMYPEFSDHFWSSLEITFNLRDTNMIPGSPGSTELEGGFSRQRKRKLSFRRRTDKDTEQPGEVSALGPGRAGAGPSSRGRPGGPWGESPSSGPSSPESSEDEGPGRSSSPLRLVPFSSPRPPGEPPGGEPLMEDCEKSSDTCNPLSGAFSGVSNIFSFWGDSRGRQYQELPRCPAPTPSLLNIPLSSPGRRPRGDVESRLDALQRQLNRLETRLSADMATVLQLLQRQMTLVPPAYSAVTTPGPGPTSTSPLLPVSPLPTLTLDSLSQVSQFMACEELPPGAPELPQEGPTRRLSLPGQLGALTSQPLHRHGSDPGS

Compound: CC1=C(C#N)C(=C(C#N)C#N)OC1(C)c1ccc(F)cc1 (centres unmarked) [C]
- class of hERG modulator assigned (hERG ion channels [1]): label-free biosensor hERG activator

Compound: CC1=C(C#N)C(=C(C#N)C#N)OC1(c1ccccc1)C(F)(F)F (centres unmarked) [Compound B, 2-dicyanomethylene-3-cyano-4-methyl-5-phenyl-5-perfluoromethyl-2,5-dihydrofuran]
- effect on the mallotoxin DMR signal in HEK-hERG cells (in words) (hERG ion channels [2]): desensitization
- DMR signal in HEK-hERG cells (hERG ion channels [3]): robust DMR signals
- effect on the mallotoxin DMR signal in HT29 cells (in words) (hERG ion channels [4]): desensitization
- class of hERG modulator assigned (hERG ion channels [1]): potent label-free biosensor hERG activator
- DMR signal in HT29 cells (hERG ion channels [5]): robust DMR signals

Compound: CN(CCO)c1ccc(/C=C/C2=C(C#N)C(=C(C#N)C#N)OC2(C)c2c(F)c(F)c(F)c(F)c2F)cc1 (centres unmarked) [J]
- class of hERG modulator assigned (hERG ion channels [1]): label-free biosensor hERG activator

Compound: O=C(O)c1cccnc1Nc1ccc2c(c1)CN(c1ccc(Cl)c(Cl)c1)C2 [PD-307243, reference compound]
- class of hERG modulator assigned (hERG ion channels [1]): label-free biosensor hERG activators

Compound: O=C(O)c1cc(-c2ccc(F)cc2F)ccc1O [diflunisal, reference compound]
- score of modulation index, HEK-hERG coordinate (hERG ion channels [2]; [8]): 1
- score of modulation index, HT29 coordinate (hERG ion channels [4]; [8]): −9

Compound: N#CC(C#N)=Cc1ccc([N+](=O)[O-])c(O)c1 [AG126, reference compound]
- class of hERG modulator assigned (hERG ion channels [1]): hERG pathway activator

Compound: CC1=C(C#N)C(=C(C#N)C#N)OC1(C)C [A]
- class of hERG modulator assigned (hERG ion channels [1]): label-free biosensor hERG activator

Compound: O=C(O)CC1CCC(c2ccc(-c3cc(C(F)(F)F)[nH]n3)cc2)CC1 (centres unmarked) [Compound A-935142, reference compound]
- class of hERG modulator assigned (hERG ion channels [1]): label-free biosensor hERG activators

Compound: COc1ccc2nccc(C(=O)CC[C@@H]3CCN(CC#Cc4cc(F)cc(F)c4F)C[C@@H]3C(=O)O)c2c1 [RPR260243, reference compound]
- class of hERG modulator assigned (hERG ion channels [1]): label-free biosensor hERG activators

Compound: CC1=C/C(=C/C=C/C2=C(C#N)C(=C(C#N)C#N)OC2(C)c2ccc(C3CCCCC3)cc2)CC(C)(C)C1 (centres unmarked) [Compound I]
- class of hERG modulator assigned (hERG ion channels [1]): label-free biosensor hERG activator

Compound: CC(=O)c1c(O)c(C)c(O)c(Cc2c(O)c3c(c(C(=O)/C=C/c4ccccc4)c2O)OC(C)(C)C=C3)c1O [mallotoxin]
- class of hERG modulator assigned (hERG ion channels [6]): label free biosensor hERG activator
- Rb+ flux signal (hERG ion channels [7]): significant increase

Compound: CC1=C(C#N)C(=C(C#N)C#N)OC1(C)c1ccc(F)cc1F (centres unmarked) [Compound D, 2-dicyanomethylene-3-cyano-4,5-dimethyl-5-[2′,4′-difluorophenyl]-2,5-dihydrofuran]
- cytotoxicity on cancer cell line HT29 (HT29): did not exhibit cytotoxicity
- cell apoptosis or alteration in cell proliferation rate, HT29 (HT29): did not lead to cell apoptosis or any alteration in cell proliferation rate
- effect on the mallotoxin DMR signal in HEK-hERG cells (in words) (hERG ion channels [2]): attenuated signal
- DMR signal in HEK-hERG cells (hERG ion channels [3]): robust DMR signals
- effect on the mallotoxin DMR signal in HT29 cells (in words) (hERG ion channels [4]): attenuated signal
- Rb+ flux signal (hERG ion channels [7]): small but detectable increase
- DMR signal in HT29 cells (hERG ion channels [5]): robust DMR signals
- cell apoptosis or alteration in cell proliferation rate, MCF7 (MCF7): did not lead to cell apoptosis or any alteration in cell proliferation rate

Compound: CC1=C(C#N)C(=C(C#N)C#N)OC1(C)c1ccc(Cl)c(Cl)c1Cl (centres unmarked) [H]
- class of hERG modulator assigned (hERG ion channels [1]): label-free biosensor hERG activator

Compound: CC1=C(C#N)C(=C(C#N)C#N)OC12CCCCC2 [Compound U, 2-dicyanomethylene-3-cyano-4-methyl-5-spiro-cyclohexyl-2,5-dihydrofuran]
- cytotoxicity on cancer cell line HT29 (HT29): did not exhibit cytotoxicity
- cell apoptosis or alteration in cell proliferation rate, HT29 (HT29): did not lead to cell apoptosis or any alteration in cell proliferation rate
- class of hERG modulator assigned (hERG ion channels [1]): label-free biosensor hERG activator
- cell apoptosis or alteration in cell proliferation rate, MCF7 (MCF7): did not lead to cell apoptosis or any alteration in cell proliferation rate

Compound: O=C(Nc1cc(C(F)(F)F)ccc1O)Nc1cc(C(F)(F)F)ccc1O [NS1643]
- class of hERG modulator assigned (hERG ion channels [6]): label-free biosensor hERG activators

Compound: CC1=C(C#N)C(=C(C#N)C#N)OC1(C)c1ccc(Cl)c(Cl)c1 (centres unmarked) [Compound F, 2-dicyanomethylene-3-cyano-4,5-dimethyl-5-[3′,4′-dichlorophenyl]-2,5-dihydrofuran]
- class of hERG modulator assigned (hERG ion channels [1]): label-free biosensor hERG activator

Compound: O=C(O)c1ccccc1Nc1ccc(CCc2ccc(Cl)c(Cl)c2)cc1 [PD-118057, reference compound]
- class of hERG modulator assigned (hERG ion channels [1]): label-free biosensor hERG activators

Compound: CC1=C(C#N)C(=C(C#N)C#N)OC1(C)c1ccc(Cl)cc1Cl (centres unmarked) [Compound G, 2-dicyanomethylene-3-cyano-4,5-dimethyl-5-[2′,4′-dichlorophenyl]-2,5-dihydrofuran]
- melting point: 239 to 240 °C

Compound: CCCCc1ccc(C2(C)OC(=C(C#N)C#N)C(C#N)=C2C)cc1 (centres unmarked) [Compound E, 2-dicyanomethylene-3-cyano-4,5-dimethyl-5-[4′-n-butylphenyl]-2,5-dihydrofuran]
- cytotoxicity on cancer cell line HT29 (HT29): did not exhibit cytotoxicity
- cell apoptosis or alteration in cell proliferation rate, HT29 (HT29): did not lead to cell apoptosis or any alteration in cell proliferation rate
- effect on the mallotoxin DMR signal in HEK-hERG cells (in words) (hERG ion channels [2]): attenuated signal
- DMR signal in HEK-hERG cells (hERG ion channels [3]): robust DMR signals
- effect on the mallotoxin DMR signal in HT29 cells (in words) (hERG ion channels [4]): attenuated signal
- Rb+ flux signal (hERG ion channels [7]): small but detectable increase
- class of hERG modulator assigned (hERG ion channels [1]): hERG activators
- DMR signal in HT29 cells (hERG ion channels [5]): robust DMR signals
- cell apoptosis or alteration in cell proliferation rate, MCF7 (MCF7): did not lead to cell apoptosis or any alteration in cell proliferation rate

Compound: CN(CCOc1ccc(NS(C)(=O)=O)cc1)CCc1ccc(NS(C)(=O)=O)cc1 [dofetilide]
- Rb+ flux signal (hERG ion channels [7]): suppression
